# “And” between values parts separate entries of the source, which are not always exact repeats. Equal entries are not always repeated. “Also recorded” adds a separate entry of the source.
# Key:
# hMOR [1] = target: T1, hMOR (Homo sapiens, UniProt P35372); test: Tango β-arrestin recruitment assay, hMOR; type: cell-based; settings: Tango
# T1 construct: expressed in transfected cells; host or cells: HEK 293T (ATCC CRL-11268), transient
# [2] = target: T2, rat kappa opioid receptor (rKOR) (Rattus norvegicus, UniProt P34975); test: BRET assay, arrestin recruitment, rKOR; type: cell-based; settings: BRET
# T2 construct: expressed in transfected cells; host or cells: HEK-293T, transient (PEI), with BRET sensor cDNAs
# T2 sequence (P34975 whole entry): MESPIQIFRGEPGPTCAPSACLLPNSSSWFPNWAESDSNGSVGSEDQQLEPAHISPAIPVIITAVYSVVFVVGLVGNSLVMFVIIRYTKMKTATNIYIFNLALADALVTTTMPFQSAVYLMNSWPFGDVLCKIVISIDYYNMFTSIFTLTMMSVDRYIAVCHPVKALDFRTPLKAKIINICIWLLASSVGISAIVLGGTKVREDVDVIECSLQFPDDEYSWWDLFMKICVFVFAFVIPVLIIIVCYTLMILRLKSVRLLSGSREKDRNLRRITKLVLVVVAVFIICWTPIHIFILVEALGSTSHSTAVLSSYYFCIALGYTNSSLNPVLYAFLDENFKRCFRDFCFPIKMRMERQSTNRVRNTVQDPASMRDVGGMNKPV
# mDOR [3] = target: T3, mDOR (Mus musculus, UniProt P32300); test: [35S]GTPγS functional assay, mDOR; type: biochemical
# T3 construct: expressed in transfected cells
# T3 sequence (P32300 whole entry): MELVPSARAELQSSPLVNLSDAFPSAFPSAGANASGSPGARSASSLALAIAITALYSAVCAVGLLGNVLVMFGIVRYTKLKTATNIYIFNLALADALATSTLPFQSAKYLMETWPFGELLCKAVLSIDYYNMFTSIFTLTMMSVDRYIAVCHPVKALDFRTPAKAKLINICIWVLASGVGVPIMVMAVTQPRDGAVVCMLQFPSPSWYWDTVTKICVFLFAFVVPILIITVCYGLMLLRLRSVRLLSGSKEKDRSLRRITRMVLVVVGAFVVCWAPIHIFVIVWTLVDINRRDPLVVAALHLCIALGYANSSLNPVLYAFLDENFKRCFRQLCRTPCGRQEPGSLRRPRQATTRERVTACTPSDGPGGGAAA
# hKOR [4] = target: T4, hKOR (Homo sapiens, UniProt P41145); test: Tango β-arrestin recruitment assay, hKOR; type: cell-based
# T4 construct: expressed in transfected cells; host or cells: HEK 293T (ATCC CRL-11268), transient
# T4 sequence (P41145 whole entry): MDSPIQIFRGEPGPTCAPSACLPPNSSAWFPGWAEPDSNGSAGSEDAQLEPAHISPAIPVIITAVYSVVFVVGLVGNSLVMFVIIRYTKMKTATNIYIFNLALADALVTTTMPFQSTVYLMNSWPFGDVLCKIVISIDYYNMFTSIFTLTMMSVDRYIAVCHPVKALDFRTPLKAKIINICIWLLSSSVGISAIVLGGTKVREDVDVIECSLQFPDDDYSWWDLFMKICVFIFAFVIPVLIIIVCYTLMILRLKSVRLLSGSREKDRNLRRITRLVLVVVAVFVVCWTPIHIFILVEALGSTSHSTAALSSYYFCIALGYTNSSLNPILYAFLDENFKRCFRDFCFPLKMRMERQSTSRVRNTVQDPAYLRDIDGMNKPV
# C57BL/6J mice [5] = test: 55° C. warm-water tail-withdrawal assay; type: in vivo, mouse; settings: icv, 55° C. tail withdrawal
# Protocol: (§1) Tail-withdrawal assay The 55° C. warm-water tail-withdrawal assay was conducted in mice as a measure of acute thermal antinociception as described previously (Reilley et al., 2010). Briefly, each mouse was tested for baseline tail-withdrawal latency prior to drug administration. Following drug administration, the latency for each mouse to withdraw the tail was measured every 10 minutes until latency returned to the baseline value. A maximum response time of 15 seconds was utilized to prevent tissue damage. […] Data are reported as percent antinociception, calculated by the equation: % antinociception=100×[(test latency−baseline latency)/(15−baseline latency)]. This was utilized to account for innate variability between mice. Compounds were administered either, […] (IP) or intracerebroventricular (icv) and the analgesic action of compounds was assessed at the peak effect as described previously (Haley and McCormick, 1957). In brief, mice were anesthetized using isoflurane. A small incision was made, and the drug (2 μl/mouse) was injected (using a 10 μL Hamilton syringe fitted to a 27-gauge needle) into the right lateral ventricle at the following coordinates: 2 mm caudal to bregma, 2 mm lateral to sagittal suture, and 2 mm in depth. Mice were tested for analgesia at the peak effect post injection.
# C57 mice = test: Respiratory rate (CLAMS)
# [6] = target: T5, mouse delta opioid receptor (mDOR) (Mus musculus, UniProt P32300); test: BRET assay, G-protein activation, mDOR; type: cell-based
# T5 construct: expressed in transfected cells; host or cells: HEK-293T, transient (PEI), with BRET sensor cDNAs
# T5 sequence (P32300 whole entry): as the sequence (P32300 whole entry) above
# Y312W-hKOR [7] = target: T6, Y312W-hKOR (Homo sapiens, UniProt P41145, Y312W); test: Tango-arrestin recruitment assay, Y312W-hKOR mutant; type: cell-based; parameters: expressed in transfected cells; settings: Tango, compared with wild-type KOR
# T6 sequence (P41145 whole entry Y312W): as the sequence (P41145 whole entry) above, with Y312W counted along it
# mMOR = target: T7, mMOR (Mus musculus, UniProt P42866); test: [35S]GTPγS functional assay, mMOR; type: biochemical
# T7 construct: expressed in transfected cells
# T7 sequence (P42866 whole entry): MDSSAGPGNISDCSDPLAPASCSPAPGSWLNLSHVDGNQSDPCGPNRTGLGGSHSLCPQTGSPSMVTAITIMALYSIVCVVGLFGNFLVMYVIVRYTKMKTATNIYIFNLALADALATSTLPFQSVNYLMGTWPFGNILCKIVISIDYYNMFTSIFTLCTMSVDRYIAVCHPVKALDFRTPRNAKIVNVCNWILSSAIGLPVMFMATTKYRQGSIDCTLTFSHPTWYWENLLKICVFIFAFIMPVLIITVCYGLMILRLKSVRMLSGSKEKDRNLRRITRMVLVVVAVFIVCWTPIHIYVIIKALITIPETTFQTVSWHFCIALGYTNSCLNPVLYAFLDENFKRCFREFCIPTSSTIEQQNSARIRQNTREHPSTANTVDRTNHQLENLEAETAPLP
# [8] = tested on: MOR KO, KOR KO, DOR KO mice; test: Tail-withdrawal antinociception in opioid receptor knock out mice; type: in vivo, mouse; settings: 30 nmol icv, relative to WT
# Protocol: as §1
# hDOR [9] = target: T8, hDOR (Homo sapiens, UniProt P41143); test: cAMP inhibition assay, hDOR; type: cell-based; parameters: expressed in transfected cells
# T8 sequence (P41143 whole entry): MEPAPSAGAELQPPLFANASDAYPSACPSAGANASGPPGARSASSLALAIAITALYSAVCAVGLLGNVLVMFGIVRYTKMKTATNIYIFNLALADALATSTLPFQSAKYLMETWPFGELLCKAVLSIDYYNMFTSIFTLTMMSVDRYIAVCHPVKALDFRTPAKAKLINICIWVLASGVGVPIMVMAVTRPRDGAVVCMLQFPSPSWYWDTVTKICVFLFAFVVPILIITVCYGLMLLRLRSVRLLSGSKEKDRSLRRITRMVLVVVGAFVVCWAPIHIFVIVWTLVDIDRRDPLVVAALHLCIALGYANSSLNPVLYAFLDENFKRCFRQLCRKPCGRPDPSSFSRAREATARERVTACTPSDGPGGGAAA
# [10] = target: T9, mouse mu opioid receptor (mMOR) (Mus musculus, UniProt P42866); test: cell-based; type: cell-based
# T9 construct: expressed in transfected cells; host or cells: HEK-293T, transient (PEI), with BRET sensor cDNAs
# T9 sequence (P42866 whole entry): as the sequence (P42866 whole entry) above
# hKOR [11] = target: T4, hKOR; test: cAMP inhibition assay (GloSensor, HEK 293T), hKOR; type: cell-based
# mKOR = target: T10, mKOR (Mus musculus, UniProt P33534); test: [35S]GTPγS functional assay, mKOR; type: biochemical
# T10 construct: expressed in transfected cells
# T10 sequence (P33534 whole entry): as the sequence (P34975 whole entry) above, with E11D, A17S, P51S, V308A counted along it
# Y312W-hKOR [12] = target: T6, Y312W-hKOR; test: cAMP inhibition assay, Y312W-hKOR mutant; type: cell-based; parameters: expressed in transfected cells; host or cells: HEK 293T (inferred from the general cAMP method)
# 330 non-olfactory GPCRs = test: PRESTO-Tango GPCRome β-arrestin recruitment screen; type: cell-based; settings: 3 μM
# Protocol: Assessment of off-target activity of MP1207 using PRESTO-Tango GPCR-ome To identify potential off-target activity of MP1207, the National Institutes of Mental Health Psychoactive Drug Screen Program were used. MP1207 was first tested for activity against 330 non-olfactory GPCRs using the PRESTO-Tango GPCRome screening β-arrestin recruitment assay at 3 μM MP1207. The activity at each receptor was measured in quadruplicate.
# Screening of compounds was accomplished using previously described methods with several modifications (www.ncbi.nlm.nih.gov/pmc/articles/PMC4424118/). First, HTLA cells were plated in DMEM with 2% dialyzed FBS and 10 U/mL penicillin-streptomycin. Next, the cells were transfected using an in-plate PEI method (www.ncbi.nlm.nih.gov/pmc/articles/PMC4012321/). PRESTO-Tango receptor DNAs were resuspended in OptiMEM and hybridized with PEI prior to dilution and distribution into 384-well plates and subsequent addition to cells. After overnight incubation, drugs diluted in DMEM with 1% dialyzed FBS were added to cells without replacement of the medium. The remaining steps of the PRESTO-Tango protocol were followed as previously described.
# mDOR [13] = target: T3, mDOR; test: Radioligand competition binding ([125I]IBNtxA), CHO membranes, mDOR
# [14] = target: T9, mouse mu opioid receptor (mMOR); test: cell-based; type: cell-based; remark: listed apart in the source
# [15] = target: T2, rat kappa opioid receptor (rKOR); test: BRET assay, G-protein activation, rKOR; type: cell-based
# hDOR [16] = target: T8, hDOR; test: Tango β-arrestin recruitment assay, hDOR; type: cell-based; parameters: expressed in transfected cells; host or cells: HTLA cells expressing TEV fused-beta-Arrestin2
# C57BL/6J mice [17] = test: Conditioned place preference and aversion; settings: MP1207 100 nmol icv, morphine 10 mg/kg IP, U50,488h 30 mg/kg IP
# hMOR [18] = target: T1, hMOR; test: cell-based; type: cell-based
# C57/B6 mice = test: Locomotor effect (CLAMS); settings: 30 or 100 nmol icv
# T1 sequence (P35372 whole entry): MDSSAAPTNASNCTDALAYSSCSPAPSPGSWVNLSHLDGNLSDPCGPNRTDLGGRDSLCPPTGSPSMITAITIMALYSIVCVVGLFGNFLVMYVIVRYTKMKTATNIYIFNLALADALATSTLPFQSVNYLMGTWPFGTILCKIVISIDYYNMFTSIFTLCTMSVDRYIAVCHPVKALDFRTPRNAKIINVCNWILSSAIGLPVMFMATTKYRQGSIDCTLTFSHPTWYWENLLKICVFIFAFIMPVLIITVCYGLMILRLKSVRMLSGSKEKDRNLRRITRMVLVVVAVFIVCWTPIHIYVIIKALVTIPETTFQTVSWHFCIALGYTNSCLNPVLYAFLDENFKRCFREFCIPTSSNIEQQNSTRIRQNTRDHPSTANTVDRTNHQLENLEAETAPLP
compound,measurement,setting,value
"NCc1cccc(C(=O)NC2CCC3C4Cc5ccc(O)c6c5C3(CCN4CC3CC3)C2O6)c1 [MP1207, 3-(Aminomethyl)-N-((7R,726S)-3-(cyclopropylmethyl)-9-hydroxy-2,3,4,4a,5,6,7,7a-octahydro-1H-4,12-methanobenzofuro[3,2-e]isoquinolin-7-yl)benzamide]",arrestin recruitment at hMOR,hMOR [1],no recruitment of arrestin was seen; also recorded: no arrestin recruitment was observed
same,arrestin recruitment at rKOR,[2],no recruitment of βarrestin-2; also recorded: no arrestin recruitment was observed
same,Emax,mDOR [3],10 to 15%
same,efficacy at mDOR,mDOR [3]; [35S]GTPγS,only weak efficacy
same,Emax,hKOR [4],37 ± 2%
same,EC50,"hKOR [4]; Tango, WT-hKOR",3.97 nM
same,antinociceptive ED50 (95% CI),C57BL/6J mice [5],6.1 (4.1-8.9) nmol and 6.1 nmol
same,respiratory rate,C57 mice; 30 nmol icv,stimulated respiration; also recorded: an increase in the respiratory rate
same,respiratory rate,C57 mice; 100 nmol icv,still stimulated respiration; also recorded: slight right shift of effect
same,EC50,"[6]; mDOR, BRET",116 nM
same,Emax,[6]; read-out: G-Protein activation Emax % ± SEM,52 ± 2.3%
same,arrestin recruitment at Y312W-hKOR,Y312W-hKOR [7],further reduction of arrestin recruitment; also recorded: reduced arrestin measurement
same,Emax,mMOR,41 ± 1%
same,antinociception in DOR KO mice,[8],remained intact
same,antinociception in KOR KO mice,[8],significantly attenuated
same,antinociception in MOR KO mice,[8],significantly attenuated
same,EC50,hDOR [9]; hDOR,11.4 nM
same,Emax,hDOR [9]; read-out: cAMP inhibition Emax % ± SEM,38 ± 2%
same,EC50,[10],3.61 nM
same,Emax,[10]; read-out: Gi Emax mMOR,42 ± 2.6%
same,Emax,"hKOR [11]; HEK-293T, read-out: Gi Emax hKOR",90 ± 1.7%
same,"Bias factor toward G protein, hKOR","hKOR [11]; cAMP inhibition vs Tango, against U50,488H as control",8
same,Emax,mKOR,39.3 ± 1.3%
same,EC50,"Y312W-hKOR [12]; cAMP inhibition, read-out: Gi EC50 Y312W-hKOR",0.16 nM
same,Emax,Y312W-hKOR [12]; read-out: Gi Emax Y312W-hKOR,95 ± 1.8%
same,selectivity for opioid receptors in GPCRome screen,330 non-olfactory GPCRs; agonism in arrestin recruitment TANGO assay,reasonable selectivity for opioid receptors over 330 GPCRs; also recorded: selectivity for opioid receptors over non-opioid targets
same,increase in signal over basal at opioid receptors,"330 non-olfactory GPCRs; predominantly at KOR and DOR, much less at MOR",2 fold over basal
same,selectivity of MOR and KOR over DOR in the binding assays,mDOR [13],> 40 fold
same,arrestin recruitment at mMOR,[14],no recruitment of βarrestin-2; also recorded: no arrestin recruitment was observed
same,EC50,"[15]; BRET, read-out: Gi EC50 rKOR",1.13 nM
same,Emax,[15]; read-out: Gi Emax rKOR,32 ± 2.3%
same,EC50,"hDOR [16]; hDOR, Tango",64.1 nM
same,Emax,hDOR [16]; read-out: Arrestin recruitment Emax % ± SEM,34 ± 3.7%
same,conditioned place preference or aversion (CPP/CPA),C57BL/6J mice [17],"failed to show either rewarding or aversive behavior; also recorded: did not display GPP seen with morphine or CPA behavior seen with U50, 488h"
same,EC50,hMOR [18],0.0339 nM
same,Emax,"hMOR [18]; HEK-293T, read-out: Gi Emax hMOR",33 ± 1.4%
same,locomotor effect,C57/B6 mice,stimulated locomotor activity; also recorded: increase in the forward locomotory effect

# Reference: US11613547B2 (priority 2019, dated 2023)
